The test system of data set [1] is 2.2.15 cells (HepG2 cells transformed with hepatitis virion). As to the kind of experiment: Toxicity analysis by uptake of neutral red dye in 2.2.15 cell cultures. How it is done: (§1) Toxicity analyses were performed in order to assess whether any observed antiviral effects were due to a general effect on cell viability. The method used was based on the uptake of neutral red dye, a standard and widely used assay for cell viability in a variety of virus-host systems, including HSV (herpes simplex virus) and HIV. The test compounds were used in the form of 40 mM stock solutions in DMSO (frozen on dry ice). Daily aliquots of the test samples were made and frozen at −20° C. so that each individual aliquot would be subjected to a single freeze-thaw cycle. The daily test aliquots were thawed, suspended into culture medium at room temperature and immediately added to the cell cultures. The compounds were tested at 0.01 to 10 μM for antiviral activity. The compounds were tested for toxicity at concentrations from 1 to 300 μM.
Toxicity analyses were performed in 96-well flat bottomed tissue culture plates. Cells for the toxicity analyses were cultured and treated with test compounds with the same schedule as used for the antiviral evaluations. Each compound was tested at 4 concentrations, each in triplicate cultures. Uptake of neutral red dye was used to determine the relative level of toxicity. The absorbance of internalized dye at […] (A510) was used for the quantitative analysis. Values are presented as a percentage of the average A510 values (± standard deviations) in 9 separate cultures of untreated cells maintained on the same 96-well plate as the test compounds.

For data set [2], the system named is Hepatitis B virus. The data set is described as follows: Inhibition of HBV replication in transfected HepG-2 (2.2.15) cells (HBV virion DNA and replicative intermediates, blot hybridization). The conditions noted are these: for Selectivity Index IC50/EC50 RI: cytotoxicity IC50 / RI EC50; for Selectivity Index IC50/EC50 Virion: cytotoxicity IC50 / virion EC50; for Selectivity Index IC50/EC90 RI: cytotoxicity IC50 / RI EC90; for Selectivity Index IC50/EC90 Virion: cytotoxicity IC50 / virion EC90; for Inhibition of HBV replication (depression of HBV virion DNA and HBV RI), in words: 2.2.15 cells. The data set is classed as cell-based. On the procedure:
The assay used herein to evaluate the ability of the disclosed compounds to inhibit the replication of HBV is described in detail in Korba and Gerin, Antiviral Res. 19: 55-70 (1992). […] The toxicity and anti-HBV activity of (−)-β-L-2-hydroxymethyl-5-(5-fluorocytosin-1-yl)-1,3-oxathiolane ((−)-β-L-FTC) and β-D-2′,3′-dideoxycytidine (β-D-ddC) are included as controls. The other compounds disclosed herein can be evaluated similarly.
The antiviral evaluations were performed on two separate passages of cells, two cultures per passage (4 cultures total). All wells, in all plates, were seeded at the same density and at the same time.
(Korba and Gerin, Antiviral Res. 19: 55-70, 1992). The levels of integrated HBV DNA in each cellular DNA preparation (which remain constant on a per cell basis in these experiments) were used to calculate the levels of intracellular HBV DNA forms, thereby eliminating technical variations inherent in the blot hybridization assays.
as §1

Where [3] appears, read: read-out: Cytotoxicity IC50, Table 2, Hep G-2 (2.2.15) cells.
[4] abbreviates: Table 2, extracellular DNA, transfected Hep G-2 (2.2.15) cells, read-out: HBV Virion EC50.
The mark [5] stands for this setting: Table 2, replicative intermediates (intracellular DNA), transfected Hep G-2 (2.2.15) cells, read-out: HBV RI EC50.
The mark [6] stands for this setting: read-out: Cytotoxity IC50 ± SD, Table 1, neutral red dye uptake, 2.2.15 cells.
[7] abbreviates: Table 1, extracellular DNA, transfected HEPG-2 (2.2.15) cells, read-out: HBV viron EC50 ± SD.
Setting [8] is: Table 1, extracellular DNA, transfected HEPG-2 (2.2.15) cells, read-out: HBV viron EC90 ± SD.
Where [9] appears, read: Table 1, replicative intermediates (intracellular DNA), transfected HEPG-2 (2.2.15) cells, read-out: HBV RI EC50 ± SD.
Setting [10] is: Table 1, replicative intermediates (intracellular DNA), transfected HEPG-2 (2.2.15) cells, read-out: HBV RI EC90 ± SD.

Like-named read-outs stand apart in the source and are kept apart here.

The record followed here is US7468357B2, “Nucleosides with anti-hepatitis B virus activity” (Emory University, priority 1994, dated 2008).

As a reminder, the IC50 is the midpoint of a concentration-inhibition curve. One may read the EC50 as the concentration that produces a half-maximal response. On to `Nc1ncnc2c1ncn2[C@@H]1CC[C@H](CO)O1` [β-L-ddA], for which the IC50 in data set [1] (setting [3]) amounted to 250 µM. In addition, in data set [2] (Table 2), the “Selectivity Index IC50/EC50 RI” value was 50 and the “Selectivity Index IC50/EC50 Virion” value was found to be 50. Also, in data set [2] (setting [4]), the EC50 is 5 µM. Also, the EC50 in data set [2] (setting [5]) turned out to be 5 µM.

The EC90 is the point of the concentration-response curve where the effect stands at 90%. `Nc1nc(=O)n(C2CSC(CO)O2)cc1F` [(−)-β-L-FTC, (−)-β-L-2-hydroxymethyl-5-(5-fluorocytosin-1-yl)-1,3-oxathiolane, reference compound]: the IC50 in data set [1] (setting [6]) was found to be 292 ± 13 µM. The “Selectivity Index IC50/EC90 RI” value in data set [2] (Table 1) was 1,622. Also, in data set [2] (Table 1), the “Selectivity Index IC50/EC90 Virion” value was 1,947. For the same compound, the EC50 in data set [2] (setting [7]) was 0.017 ± 0.005 µM; in data set [2] (setting [9]), 0.049 ± 0.008 µM. The 90% effect concentration (EC90) in data set [2] (setting [8]) was determined as 0.15 ± 0.02 µM; in data set [2] (setting [10]), 0.18 ± 0.03 µM.

Take `CC(C)(C)C(=O)SCCOP(=O)(OCCSC(=O)C(C)(C)C)OCC1CCC(n2cnc3c(N)ncnc32)O1` [Bis (Sate) β-L-ddAMP, β-L-2′,3′-Dideoxyadenosin-5′-yl bis (2-pivaloylthioethyl) phosphate]: the IC50 in data set [1] (setting [3]) is 200 µM. For the same compound, in data set [2] (Table 2), the “Selectivity Index IC50/EC50 RI” value was 571 and the “Selectivity Index IC50/EC50 Virion” value was 445. For the same compound, the EC50 in data set [2] (setting [4]) came out at 0.45 µM. Also, the concentration giving a half-maximal response (EC50) in data set [2] (setting [5]) is 0.35 µM.

As to `Nc1ccn([C@@H]2CC[C@H](CO)O2)c(=O)n1` [β-L-DDC, 2′,3′-Dideoxy-β-L-cytidine], the IC50 in data set [1] (setting [6]) came out at 493 ± 64 µM. Moreover, in data set [2], the “Inhibition of HBV replication (depression of HBV virion DNA and HBV RI), in words” value was “potent inhibitors of HBV replication”. Besides, the “Selectivity Index IC50/EC90 RI” value in data set [2] (Table 1) came out at 274. The “Selectivity Index IC50/EC90 Virion” value in data set [2] (Table 1) was 448. The EC50 in data set [2] (setting [7]) was found to be 0.033 ± 0.003 µM; in data set [2] (setting [9]), 0.107 ± 0.012 µM. Besides, the EC90 in data set [2] (setting [8]) turned out to be 1.1 ± 0.2 µM; in data set [2] (setting [10]), 1.8 ± 0.2 µM.

Regarding `Nc1nc(=O)n([C@@H]2CC[C@H](CO)O2)cc1F` [β-L-FDDC, 2′,3′-Dideoxy-β-L-5-fluorocytidine], the IC50 in data set [1] (setting [6]) was 438 ± 57 µM. Further, in data set [2], the “Inhibition of HBV replication (depression of HBV virion DNA and HBV RI), in words” value is “potent inhibitors of HBV replication”. In data set [2] (Table 1), the “Selectivity Index IC50/EC90 RI” value was found to be 91 and the “Selectivity Index IC50/EC90 Virion” value is 1,460. Further, the 90% effect concentration (EC90) in data set [2] (setting [8]) is 0.3 ± 0.03 µM. Further, in data set [2] (setting [9]), the EC50 worked out at 2.8 ± 0.4 µM. The EC90 in data set [2] (setting [10]) is 4.8 ± 0.6 µM.

As for `CC(=O)SCCOP(=O)(OCCSC(C)=O)OC[C@@H]1O[C@H](n2cc(C)c(=O)[nH]c2=O)C[C@H]1N=[N+]=[N-]` [Bis (Sate) β-L-AZTMP], the concentration for half-maximal inhibition (IC50) in data set [1] (setting [3]) was 200 µM. In data set [2] (Table 2), the “Selectivity Index IC50/EC50 RI” value was found to be 25 and the “Selectivity Index IC50/EC50 Virion” value worked out at 27. In addition, the EC50 in data set [2] (setting [4]) stood at 7.5 µM. In addition, the EC50 in data set [2] (setting [5]) was found to be 8 µM.
